From patent US10239869B2, “Sulfonamide compounds as voltage-gated sodium channel modulators” (LUPIN LIMITED, priority 2015, dated 2019) come the findings set out here.

The target in one data set is Nav 1.7 (Homo sapiens (Human), UniProt Q15858). In words: Inhibition of sodium channels, Red Membrane Potential Dye FLIPR assay, veratridine depolarization. Particulars: HEK-293 cells overexpressing the channel; for IC50: read-out: Nav1.7 IC50. The format is cell-based.
Another data set has as its target Nav 1.5 (Homo sapiens (Human), UniProt Q14524). Described as above. The format is cell-based. As to conditions: HEK-293 cells overexpressing the channel.
The mark [1] stands for this setting: read-out: Nav1.5 IC50 (bound given in μM).

Where two headings read alike, the source gives them in different places. A value given as a limit tells only on which side of the number the result lay.

Sequence of Nav 1.5 (Q14524 whole entry): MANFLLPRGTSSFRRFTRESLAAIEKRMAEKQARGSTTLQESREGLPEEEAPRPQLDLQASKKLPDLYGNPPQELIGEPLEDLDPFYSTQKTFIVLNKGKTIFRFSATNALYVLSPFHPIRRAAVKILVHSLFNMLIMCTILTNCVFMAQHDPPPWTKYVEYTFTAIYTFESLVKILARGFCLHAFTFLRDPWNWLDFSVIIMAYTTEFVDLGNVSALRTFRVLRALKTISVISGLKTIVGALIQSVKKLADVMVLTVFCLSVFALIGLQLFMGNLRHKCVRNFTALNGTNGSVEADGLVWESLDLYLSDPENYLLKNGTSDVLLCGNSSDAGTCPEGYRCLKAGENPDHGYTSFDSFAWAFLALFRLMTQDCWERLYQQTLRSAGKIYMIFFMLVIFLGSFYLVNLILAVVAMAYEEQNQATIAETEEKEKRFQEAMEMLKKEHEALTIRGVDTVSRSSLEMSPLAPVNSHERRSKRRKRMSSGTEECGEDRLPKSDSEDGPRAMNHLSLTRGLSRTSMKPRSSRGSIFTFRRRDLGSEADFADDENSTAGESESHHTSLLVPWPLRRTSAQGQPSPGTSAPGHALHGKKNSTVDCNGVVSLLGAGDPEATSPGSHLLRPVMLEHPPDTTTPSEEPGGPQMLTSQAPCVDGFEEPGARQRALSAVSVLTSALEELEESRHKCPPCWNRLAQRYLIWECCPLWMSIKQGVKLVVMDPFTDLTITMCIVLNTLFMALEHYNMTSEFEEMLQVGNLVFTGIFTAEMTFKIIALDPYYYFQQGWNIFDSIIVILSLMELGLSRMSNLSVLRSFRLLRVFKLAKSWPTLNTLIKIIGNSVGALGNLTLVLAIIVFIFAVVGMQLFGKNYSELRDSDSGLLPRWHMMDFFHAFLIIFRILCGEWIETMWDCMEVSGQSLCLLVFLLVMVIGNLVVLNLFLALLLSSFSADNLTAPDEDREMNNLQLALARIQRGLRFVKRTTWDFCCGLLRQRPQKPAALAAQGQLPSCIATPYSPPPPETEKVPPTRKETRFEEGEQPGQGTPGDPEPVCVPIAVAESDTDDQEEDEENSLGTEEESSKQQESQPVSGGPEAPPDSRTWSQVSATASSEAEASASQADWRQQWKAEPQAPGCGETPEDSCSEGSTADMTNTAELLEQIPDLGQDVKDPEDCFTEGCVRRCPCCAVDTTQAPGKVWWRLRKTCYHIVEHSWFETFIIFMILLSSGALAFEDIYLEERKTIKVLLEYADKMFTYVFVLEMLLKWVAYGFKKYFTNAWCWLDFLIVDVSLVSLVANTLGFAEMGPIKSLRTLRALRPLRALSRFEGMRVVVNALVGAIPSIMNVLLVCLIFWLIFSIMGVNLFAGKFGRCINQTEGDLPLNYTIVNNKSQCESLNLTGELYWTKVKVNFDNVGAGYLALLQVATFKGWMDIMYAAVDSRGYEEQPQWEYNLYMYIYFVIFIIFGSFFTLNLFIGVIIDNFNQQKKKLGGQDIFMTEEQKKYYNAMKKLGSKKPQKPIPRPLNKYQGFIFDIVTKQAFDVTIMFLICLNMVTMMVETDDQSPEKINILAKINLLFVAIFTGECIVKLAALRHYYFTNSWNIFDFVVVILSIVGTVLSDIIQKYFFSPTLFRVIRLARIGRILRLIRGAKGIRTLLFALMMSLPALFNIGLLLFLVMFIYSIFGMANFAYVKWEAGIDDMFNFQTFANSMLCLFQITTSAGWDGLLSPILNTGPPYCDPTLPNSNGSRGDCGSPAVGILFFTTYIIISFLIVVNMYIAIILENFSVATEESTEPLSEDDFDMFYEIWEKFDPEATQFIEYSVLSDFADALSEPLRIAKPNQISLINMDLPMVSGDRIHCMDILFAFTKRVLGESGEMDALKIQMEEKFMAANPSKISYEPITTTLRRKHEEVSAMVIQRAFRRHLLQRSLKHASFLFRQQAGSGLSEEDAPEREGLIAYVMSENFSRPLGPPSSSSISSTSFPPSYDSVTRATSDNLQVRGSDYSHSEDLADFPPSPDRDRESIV
Sequence of Nav 1.7 (Q15858 whole entry): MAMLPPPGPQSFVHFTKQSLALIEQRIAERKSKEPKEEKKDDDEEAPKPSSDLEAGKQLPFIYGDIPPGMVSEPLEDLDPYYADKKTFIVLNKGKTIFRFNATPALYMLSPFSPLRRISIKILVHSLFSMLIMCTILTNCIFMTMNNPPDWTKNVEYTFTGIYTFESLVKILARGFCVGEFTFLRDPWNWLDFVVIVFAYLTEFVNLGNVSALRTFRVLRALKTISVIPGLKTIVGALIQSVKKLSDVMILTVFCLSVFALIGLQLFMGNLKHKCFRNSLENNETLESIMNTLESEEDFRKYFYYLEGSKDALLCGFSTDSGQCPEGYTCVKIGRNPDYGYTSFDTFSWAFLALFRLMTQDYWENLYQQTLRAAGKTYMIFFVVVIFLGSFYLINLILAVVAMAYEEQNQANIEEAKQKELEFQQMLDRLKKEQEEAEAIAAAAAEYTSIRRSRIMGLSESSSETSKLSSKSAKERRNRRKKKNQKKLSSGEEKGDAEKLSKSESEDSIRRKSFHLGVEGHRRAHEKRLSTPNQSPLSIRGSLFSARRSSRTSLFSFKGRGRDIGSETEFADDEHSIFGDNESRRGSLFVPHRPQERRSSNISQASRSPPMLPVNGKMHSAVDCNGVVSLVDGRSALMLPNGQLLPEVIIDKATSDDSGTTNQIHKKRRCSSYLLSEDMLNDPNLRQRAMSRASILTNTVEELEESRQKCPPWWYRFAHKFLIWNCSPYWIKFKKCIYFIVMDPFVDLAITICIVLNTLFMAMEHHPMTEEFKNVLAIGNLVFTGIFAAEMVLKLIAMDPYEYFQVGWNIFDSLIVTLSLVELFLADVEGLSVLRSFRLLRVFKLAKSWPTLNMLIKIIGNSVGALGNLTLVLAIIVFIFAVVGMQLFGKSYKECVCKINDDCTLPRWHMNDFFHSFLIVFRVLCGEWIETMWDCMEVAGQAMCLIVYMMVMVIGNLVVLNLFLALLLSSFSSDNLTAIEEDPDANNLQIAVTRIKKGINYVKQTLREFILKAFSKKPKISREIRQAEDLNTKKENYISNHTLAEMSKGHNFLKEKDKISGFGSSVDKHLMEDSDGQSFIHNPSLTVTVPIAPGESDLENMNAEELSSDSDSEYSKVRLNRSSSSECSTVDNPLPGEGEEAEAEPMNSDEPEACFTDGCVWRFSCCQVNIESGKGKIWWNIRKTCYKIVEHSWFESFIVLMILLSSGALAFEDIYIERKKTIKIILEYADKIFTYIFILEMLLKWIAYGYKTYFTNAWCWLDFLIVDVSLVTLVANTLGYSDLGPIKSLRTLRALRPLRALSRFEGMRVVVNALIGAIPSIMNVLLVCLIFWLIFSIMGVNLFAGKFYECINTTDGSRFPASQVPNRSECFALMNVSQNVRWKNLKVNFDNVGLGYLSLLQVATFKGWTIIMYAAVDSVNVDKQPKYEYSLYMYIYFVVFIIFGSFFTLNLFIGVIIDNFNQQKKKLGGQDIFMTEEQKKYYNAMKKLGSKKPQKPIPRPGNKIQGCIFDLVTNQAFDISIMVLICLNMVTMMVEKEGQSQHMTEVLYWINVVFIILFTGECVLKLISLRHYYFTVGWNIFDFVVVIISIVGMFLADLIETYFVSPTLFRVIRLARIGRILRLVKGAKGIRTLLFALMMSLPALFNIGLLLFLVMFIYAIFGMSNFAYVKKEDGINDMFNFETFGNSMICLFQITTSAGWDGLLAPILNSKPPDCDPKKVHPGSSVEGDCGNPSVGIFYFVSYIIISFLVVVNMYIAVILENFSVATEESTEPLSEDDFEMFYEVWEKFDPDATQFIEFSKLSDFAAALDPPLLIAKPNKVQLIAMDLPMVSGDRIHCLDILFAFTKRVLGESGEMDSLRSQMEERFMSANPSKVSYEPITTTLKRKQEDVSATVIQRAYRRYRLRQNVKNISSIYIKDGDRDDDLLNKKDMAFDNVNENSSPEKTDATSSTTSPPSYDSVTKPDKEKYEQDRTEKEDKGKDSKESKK

As for `O=S(=O)(Nc1cccc(F)n1)c1ccc2c(c1)OCC[C@@H]2c1ccc(C(F)(F)F)cc1-n1cccn1` [Example 90, (S&R)-4-(2-(1H-pyrazol-1-yl)-4-(trifluoromethyl)phenyl)-N-(6-fluoropyridin-2-yl)chroman-7-sulfonamide], the results for the IC50 at Nav 1.7 and on Nav 1.5 (setting [1]) were 15 nM and more than 10 µM, respectively.
As for `CC(C)Oc1ccc(-c2cc(C(F)(F)F)ccc2[C@@H]2CCOc3cc(S(=O)(=O)Nc4ncccn4)ccc32)cn1` [Example 97, (S&R)-4-(2-(6-isopropoxypyridin-3-yl)-4-(trifluoromethyl)phenyl)-N-(pyrimidin-2-yl)chroman-7-sulfonamide], the concentration for half-maximal inhibition (IC50) at Nav 1.7 turned out to be 170 nM. The “Nav1.5 % inhibition @ 10 μM” value on Nav 1.5 amounted to 71%.
As for `CC(C)Oc1ccc(-c2cc(C(F)(F)F)ccc2[C@H]2CCOc3cc(S(=O)(=O)Nc4ncccn4)ccc32)cn1` [Example 98, (S&R)-4-(2-(6-isopropoxypyridin-3-yl)-4-(trifluoromethyl)phenyl)-N-(pyrimidin-2-yl)chroman-7-sulfonamide], the IC50 worked out at 11 nM on Nav 1.7 and 0.432 µM at Nav 1.5 (read-out: Nav1.5 IC50).
`CC(C)Oc1ccc(-c2cc(C(F)(F)F)ccc2[C@@H]2CCOc3cc(S(=O)(=O)Nc4ncc(F)cn4)ccc32)cn1` [Example 99, (S&R)—N-(5-fluoropyrimidin-2-yl)-4-(2-(6-isopropoxypyridin-3-yl)-4-(trifluoromethyl)phenyl)chroman-7-sulfonamide]: the IC50 at Nav 1.7 was determined as 1060 nM. Moreover, at Nav 1.5, the “Nav1.5 % inhibition @ 10 μM” value turned out to be 80%.
`CC(C)Oc1ccc(-c2cc(C(F)(F)F)ccc2[C@H]2CCOc3cc(S(=O)(=O)Nc4ncc(F)cn4)ccc32)cn1` [Example 100, (S&R)—N-(5-fluoropyrimidin-2-yl)-4-(2-(6-isopropoxypyridin-3-yl)-4-(trifluoromethyl)phenyl)chroman-7-sulfonamide]: the half-inhibitory concentration (IC50) on Nav 1.7 was 75 nM; at Nav 1.5 (setting [1]), more than 10 µM.
`CCOc1ccc(-c2cc(C(F)(F)F)ccc2[C@@H]2CCOc3cc(S(=O)(=O)Nc4ncc(F)cn4)ccc32)cn1` [Example 101, (S&R)-4-(2-(6-ethoxypyridin-3-yl)-4-(trifluoromethyl)phenyl)-N-(5-fluoropyrimidin-2-yl)chroman-7-sulfonamide]: on Nav 1.7, the half-inhibitory concentration (IC50) worked out at 2590 nM. Besides, on Nav 1.5, the “Nav1.5 % inhibition @ 10 μM” value is listed as 51%.
`CCOc1ccc(-c2cc(C(F)(F)F)ccc2[C@H]2CCOc3cc(S(=O)(=O)Nc4ncc(F)cn4)ccc32)cn1` [Example 102, (S&R)-4-(2-(6-ethoxypyridin-3-yl)-4-(trifluoromethyl)phenyl)-N-(5-fluoropyrimidin-2-yl)chroman-7-sulfonamide]: the IC50 is 39 nM on Nav 1.7 and more than 10 µM at Nav 1.5 (setting [1]).
In the same order, the values of `O=S(=O)(Nc1ncccn1)c1ccc2c(c1)OCC[C@H]2c1ccc(C(F)(F)F)cc1C1CCOCC1` [Example 109, (S&R)—N-(pyrimidin-2-yl)-4-(2-(tetrahydro-2H-pyran-4-yl)-4-(trifluoromethyl)phenyl)chroman-7-sulfonamide] are 740 nM and more than 10 µM.
With `O=S(=O)(Nc1ncccn1)c1ccc2c(c1)OCC[C@@H]2c1ccc(C(F)(F)F)cc1C1CCOCC1` [Example 110, (S&R)—N-(pyrimidin-2-yl)-4-(2-(tetrahydro-2H-pyran-4-yl)-4-(trifluoromethyl)phenyl)chroman-7-sulfonamide], the IC50 at Nav 1.7 is 156 nM; on Nav 1.5 (read-out: Nav1.5 IC50), 1.75 µM.
For `O=C1CCCN1c1cc(C(F)(F)F)ccc1[C@@H]1CCOc2cc(S(=O)(=O)Nc3cccc(F)n3)ccc21` [Example 111, (S&R)—N-(6-Fluoropyridin-2-yl)-4-(2-(2-oxopyrrolidin-1-yl)-4-(trifluoromethyl)phenyl)chroman-7-sulfonamide], at Nav 1.7, the IC50 was determined as 814 nM. The “Nav1.5 % inhibition @ 10 μM” value at Nav 1.5 turned out to be 67%.
In the same order, the values of `O=C1CCCN1c1cc(C(F)(F)F)ccc1[C@H]1CCOc2cc(S(=O)(=O)Nc3cccc(F)n3)ccc21` [Example 112, (S&R)—N-(6-Fluoropyridin-2-yl)-4-(2-(2-oxopyrrolidin-1-yl)-4-(trifluoromethyl)phenyl)chroman-7-sulfonamide] are 801 nM and 65%.
On to `O=C1CCCN1c1cc(C(F)(F)F)ccc1[C@@H]1CCOc2cc(S(=O)(=O)Nc3ncc(F)cn3)ccc21` [Example 113, (S&R)—N-(5-fluoropyrimidin-2-yl)-4-(2-(2-oxopyrrolidin-1-yl)-4-(trifluoromethyl)phenyl)chroman-7-sulfonamide], for which the “Nav1.7 inhibition @ 10 μM” value at Nav 1.7 (10 μM) worked out at 65%. Also, the IC50 at Nav 1.5 (setting [1]) was more than 10 µM.
`O=C1CCCN1c1cc(C(F)(F)F)ccc1[C@H]1CCOc2cc(S(=O)(=O)Nc3ncc(F)cn3)ccc21` [Example 114, (S&R)—N-(5-fluoropyrimidin-2-yl)-4-(2-(2-oxopyrrolidin-1-yl)-4-(trifluoromethyl)phenyl)chroman-7-sulfonamide]: the concentration for half-maximal inhibition (IC50) on Nav 1.7 was 624 nM; at Nav 1.5 (setting [1]) it was more than 10 µM.
As to `COCCOc1cc(C(F)(F)F)ccc1[C@@H]1CCOc2cc(S(=O)(=O)Nc3ncccn3)ccc21` [Example 124, (S&R)-4-(2-(2-methoxyethoxy)-4-(trifluoromethyl)phenyl)-N-(pyrimidin-2-yl)chroman-7-sulfonamide], the concentration for half-maximal inhibition (IC50) at Nav 1.7 turned out to be 2230 nM. On Nav 1.5, the “Nav1.5 % inhibition @ 10 μM” value came out at 71%.
For the compound `COCCOc1cc(C(F)(F)F)ccc1[C@H]1CCOc2cc(S(=O)(=O)Nc3ncccn3)ccc21` [Example 125, (S&R)-4-(2-(2-methoxyethoxy)-4-(trifluoromethyl)phenyl)-N-(pyrimidin-2-yl)chroman-7-sulfonamide], the 50% inhibitory concentration (IC50) on Nav 1.7 was found to be 395 nM; on Nav 1.5 (read-out: Nav1.5 IC50), 2.64 µM.
With `COCCCOc1cc(C(F)(F)F)ccc1[C@@H]1CCOc2cc(S(=O)(=O)Nc3ncccn3)ccc21` [Example 130, (S&R)-4-(2-(3-methoxypropoxy)-4-(trifluoromethyl)phenyl)-N-(pyrimidin-2-yl)chroman-7-sulfonamide], the IC50 was 1690 nM at Nav 1.7 and more than 10 µM at Nav 1.5 (setting [1]).
Take `COCCCOc1cc(C(F)(F)F)ccc1[C@H]1CCOc2cc(S(=O)(=O)Nc3ncccn3)ccc21` [Example 131, (S&R)-4-(2-(3-methoxypropoxy)-4-(trifluoromethyl)phenyl)-N-(pyrimidin-2-yl)chroman-7-sulfonamide]: at Nav 1.7, the half-maximal inhibitory concentration (IC50) was 53 nM. Also, the “Nav1.5 % inhibition @ 10 μM” value at Nav 1.5 is given as 66%.
Take `COCCCc1cc(C(F)(F)F)ccc1[C@@H]1CCOc2cc(S(=O)(=O)Nc3ncccn3)ccc21` [Example 140, (S&R)-4-(2-(3-methoxypropyl)-4-(trifluoromethyl)phenyl)-N-(pyrimidin-2-yl)chroman-7-sulfonamide]: the results for the IC50 at Nav 1.7 and at Nav 1.5 (setting [1]) were 1740 nM and more than 10 µM, respectively.
Turning to `COCCCc1cc(C(F)(F)F)ccc1[C@H]1CCOc2cc(S(=O)(=O)Nc3ncccn3)ccc21` [Example 141, (S&R)-4-(2-(3-methoxypropyl)-4-(trifluoromethyl)phenyl)-N-(pyrimidin-2-yl)chroman-7-sulfonamide], the 50% inhibitory concentration (IC50) on Nav 1.7 was 69 nM. Further, the “Nav1.5 % inhibition @ 10 μM” value on Nav 1.5 is recorded as 65%.
On to `COCCCCc1cc(C(F)(F)F)ccc1[C@@H]1CCOc2cc(S(=O)(=O)Nc3ncccn3)ccc21` [Example 146, (S&R)-4-(2-(4-methoxybutyl)-4-(trifluoromethyl)phenyl)-N-(pyrimidin-2-yl)chroman-7-sulfonamide], for which the half-maximal inhibitory concentration (IC50) at Nav 1.7 is 790 nM; at Nav 1.5 (setting [1]), more than 10 µM.
For the compound `COCCCCc1cc(C(F)(F)F)ccc1[C@H]1CCOc2cc(S(=O)(=O)Nc3ncccn3)ccc21` [Example 147, (S&R)-4-(2-(4-methoxybutyl)-4-(trifluoromethyl)phenyl)-N-(pyrimidin-2-yl)chroman-7-sulfonamide], the concentration for half-maximal inhibition (IC50) at Nav 1.7 worked out at 199 nM. Further, on Nav 1.5, the “Nav1.5 % inhibition @ 10 μM” value was 60%.
On to `COCCCCc1cc(C(F)(F)F)ccc1[C@@H]1CCOc2cc(S(=O)(=O)Nc3cccc(F)n3)ccc21` [Example 151, (S&R)—N-(6-fluoropyridin-2-yl)-4-(2-(4-methoxybutyl)-4-(trifluoromethyl)phenyl)chroman-7-sulfonamide], for which the half-inhibitory concentration (IC50) at Nav 1.7 was determined as 390 nM. The “Nav1.5 % inhibition @ 10 μM” value on Nav 1.5 came to 57%.
The like results for `COCCCCc1cc(C(F)(F)F)ccc1[C@H]1CCOc2cc(S(=O)(=O)Nc3cccc(F)n3)ccc21` [Example 152, (S&R)—N-(6-fluoropyridin-2-yl)-4-(2-(4-methoxybutyl)-4-(trifluoromethyl)phenyl)chroman-7-sulfonamide] were, in that order, 40 nM and 67%.
For `O=S(=O)(Nc1ncccn1)c1ccc2c(c1)OCC[C@H]2c1ccc(C(F)(F)F)cc1OC1CCOCC1` [Example-168, (R&S)—N-(pyrimidin-2-yl)-4-(2-((tetrahydro-2H-pyran-4-yl)oxy)-4-(trifluoromethyl)phenyl)chroman-7-sulfonamide], the values for the IC50 at Nav 1.7 and on Nav 1.5 (setting [1]) were 3900 nM and more than 10 µM, respectively.
With `O=S(=O)(Nc1ncccn1)c1ccc2c(c1)OCC[C@@H]2c1ccc(C(F)(F)F)cc1OC1CCOCC1` [Example-169, (R&S)—N-(pyrimidin-2-yl)-4-(2-((tetrahydro-2H-pyran-4-yl)oxy)-4-(trifluoromethyl)phenyl)chroman-7-sulfonamide], the values for the 50% inhibitory concentration (IC50) at Nav 1.7 and on Nav 1.5 (read-out: Nav1.5 IC50) were 43 nM and 4.89 µM, respectively.
In the case of `O=S(=O)(Nc1ncc(F)cn1)c1ccc2c(c1)OCC[C@H]2c1ccc(C(F)(F)F)cc1OC1CCOCC1` [Example-170, (R&S)—N-(5-fluoropyrimidin-2-yl)-4-(2-((tetrahydro-2H-pyran-4-yl)oxy)-4-(trifluoromethyl)phenyl)chroman-7-sulfonamide], the 50% inhibitory concentration (IC50) at Nav 1.7 is 1090 nM; on Nav 1.5 (setting [1]), more than 10 µM.
Turning to `O=S(=O)(Nc1ncc(F)cn1)c1ccc2c(c1)OCC[C@@H]2c1ccc(C(F)(F)F)cc1OC1CCOCC1` [Example-171, (R&S)—N-(5-fluoropyrimidin-2-yl)-4-(2-((tetrahydro-2H-pyran-4-yl)oxy)-4-(trifluoromethyl)phenyl)chroman-7-sulfonamide], the 50% inhibitory concentration (IC50) on Nav 1.7 was 125 nM. Further, the “Nav1.5 % inhibition @ 10 μM” value at Nav 1.5 turned out to be 53%.
